Drawing on ChEMBL document CHEMBL1139298, “Synthesis and biological evaluation of novel 2,4,5-substituted pyrimidine derivatives for anticancer activity” (Bioorg Med Chem Lett, 2009), this text covers IC50 for 19 compounds.

The term IC50 denotes the point on the concentration scale where inhibition reaches its midpoint. A higher IC50 goes with weaker potency.

The subject of one assay is Bel-7402. In words: Cytotoxicity against human Bel7402 cells after 72 hrs by SRB assay. The class given is functional, cell-based. Conditions: Bel-7402, 72 h. For orientation: Sulforhodamine B stains cellular protein and so reports cell mass.
The nature of assay [1]: Cytotoxicity against human WI38 cells after 72 hrs by SRB assay. The class given is cell-based. The conditions noted are these: WI-38, 72 h.
In another assay the test system is SGC-7901. In words: Cytotoxicity against human SGC7901 cells after 72 hrs by SRB assay. The class given is functional, cell-based. The conditions noted are these: SGC-7901, 72 h.
In the next assay the test system is NCI-H460. The experiment in a line: Cytotoxicity against human NCI-H460 cells after 72 hrs by SRB assay. The class given is functional, cell-based. The conditions noted are these: NCI-H460, 72 h.
In another assay the test system is Calu-3. In words: Cytotoxicity against human Calu3 cells after 72 hrs by SRB assay. The conditions noted are these: Calu-3, 72 h. It is filed as functional, cell-based.
The next assay relates to HT-29. The experiment in a line: cells. Conditions: Homo sapiens, HT-29, 72 h.
The subject of a further assay is SK-BR-3. In words: Cytotoxicity against human SKBR3 cells after 72 hrs by SRB assay. The class given is functional, cell-based. The conditions noted are these: SK-BR-3, 72 h.

A value given as a limit tells only on which side of the number the result lay.

Description for HT-29: Cytotoxicity against human HT-29 cells after 72 hrs by SRB assay

Consider `Cc1ncc(-c2ccc(N)cc2)c(-c2ccccc2O)n1`, for which the IC50 (in the assay on Bel-7402; in assay [1]) was over 10 µM in each case.

Take `Cc1ncc(-c2ccccc2F)c(-c2ccccc2O)n1`: the half-maximal inhibitory concentration (IC50) (in the assay with Bel-7402; in assay [1]) was over 10 µM in each case.

For `Cc1ncc(-c2ccc(OC(F)(F)F)cc2)c(-c2ccccc2O)n1`, the IC50 (in the assay on Bel-7402; in assay [1]) was over 10 µM throughout.

As for `Nc1ncc(-c2ccc(OCCCOCc3ccccc3)cc2)c(-c2ccccc2O)n1`, the IC50 (in the assay on Bel-7402; in assay [1]) was over 10 µM each time.

Turning to `Nc1ncc(-c2ccc(OC(F)(F)F)cc2)c(-c2ccccc2O)n1`, the IC50 (with Bel-7402; in assay [1]) was over 10 µM each time.

As to `Nc1ncc(-c2ccc(O)cc2)c(-c2ccccc2O)n1`, the 50% inhibitory concentration (IC50) (in the assay with Bel-7402; in assay [1]) was over 10 µM each time.

Consider `COC(=O)c1ncc(-c2ccc(OC)cc2)c(-c2ccccc2O)n1`, for which the IC50 (with Bel-7402; in assay [1]) was over 10 µM throughout.

For `CNC(=O)c1ncc(-c2ccc(OC)cc2)c(-c2ccccc2O)n1`, the IC50 (in the assay on Bel-7402; in assay [1]) was over 10 µM each time.

With `Cc1ncc(-c2cccc(C(F)(F)F)c2)c(-c2ccccc2O)n1`, the IC50 (with Bel-7402; in assay [1]) was over 10 µM throughout.

As for `Cc1ncc(-c2ccc(Cl)cc2)c(-c2ccccc2O)n1`, the IC50 (with Bel-7402; in assay [1]) was over 10 µM each time.

With `Cc1ncc(-c2ccc(NC(=O)OC(C)(C)C)cc2)c(-c2ccccc2O)n1`, the half-inhibitory concentration (IC50) (with Bel-7402; in assay [1]) was over 10 µM throughout.

As to `COc1cc(-c2cnc(C)nc2-c2ccccc2O)cc(OC)c1OC`, the concentration for half-maximal inhibition (IC50) (in the assay with Bel-7402; in assay [1]) was over 10 µM in each case.

With `Nc1ncc(-c2ccccc2F)c(-c2ccccc2O)n1`, the half-maximal inhibitory concentration (IC50) (in the assay with Bel-7402; in assay [1]) was over 10 µM throughout.

Regarding `COc1cc(-c2cnc(N)nc2-c2ccccc2O)cc(OC)c1OC`, the IC50 (with Bel-7402; in assay [1]) was over 10 µM each time.

For the compound `Nc1ncc(-c2cccc(C(F)(F)F)c2)c(-c2ccccc2O)n1`, the IC50 (in the assay with Bel-7402; in assay [1]) was over 10 µM throughout.

Turning to `Nc1ncc(-c2ccc(OCCN3CCCC3)cc2)c(-c2ccccc2O)n1`, the half-maximal inhibitory concentration (IC50) (with Bel-7402; in assay [1]) was over 10 µM each time.

With `CC(=O)O[C@@]12CO[C@@H]1C[C@H](O)[C@@]1(C)C(=O)[C@H](O)C3=C(C)[C@@H](OC(=O)[C@H](O)[C@@H](NC(=O)OC(C)(C)C)c4ccccc4)C[C@@](O)([C@@H](OC(=O)c4ccccc4)[C@H]21)C3(C)C` [DOCETAXEL], the IC50 in the assay on SGC-7901 is 0.0084 µM; with NCI-H460, 0.0097 µM; in assay [1] it was over 10 µM; in the assay on Calu-3 it was 0.1 µM.

In the case of `COc1cccc2c1C(=O)c1c(O)c3c(c(O)c1C2=O)C[C@@](O)(C(=O)CO)C[C@@H]3O[C@H]1C[C@H](N)[C@H](O)[C@H](C)O1` [DOXORUBICIN], the IC50 was 0.021 µM with Bel-7402, over 10 µM in assay [1] and 0.018 µM in the assay with HT-29.

Turning to `CS(=O)(=O)CCNCc1ccc(-c2ccc3ncnc(Nc4ccc(OCc5cccc(F)c5)c(Cl)c4)c3c2)o1` [LAPATINIB], the figures for the half-inhibitory concentration (IC50) (in the assay with SK-BR-3; in assay [1]) were 0.017 µM and over 10 µM, respectively.
